How the values were obtained:
[1] = biological target: T1, Human recombinant MMP-2 (Homo sapiens, UniProt P08253); assay: In vitro MMP inhibition analysis (fluorogenic peptide substrate), MMP-2; format: biochemical; conditions: human recombinant enzyme; 4 μM substrate (A); apparent Ki without substrate correction
T1 construct: made in house; host or cells: MMP-2-transfected p2AHT2 cells
T1 sequence (P08253 110-660): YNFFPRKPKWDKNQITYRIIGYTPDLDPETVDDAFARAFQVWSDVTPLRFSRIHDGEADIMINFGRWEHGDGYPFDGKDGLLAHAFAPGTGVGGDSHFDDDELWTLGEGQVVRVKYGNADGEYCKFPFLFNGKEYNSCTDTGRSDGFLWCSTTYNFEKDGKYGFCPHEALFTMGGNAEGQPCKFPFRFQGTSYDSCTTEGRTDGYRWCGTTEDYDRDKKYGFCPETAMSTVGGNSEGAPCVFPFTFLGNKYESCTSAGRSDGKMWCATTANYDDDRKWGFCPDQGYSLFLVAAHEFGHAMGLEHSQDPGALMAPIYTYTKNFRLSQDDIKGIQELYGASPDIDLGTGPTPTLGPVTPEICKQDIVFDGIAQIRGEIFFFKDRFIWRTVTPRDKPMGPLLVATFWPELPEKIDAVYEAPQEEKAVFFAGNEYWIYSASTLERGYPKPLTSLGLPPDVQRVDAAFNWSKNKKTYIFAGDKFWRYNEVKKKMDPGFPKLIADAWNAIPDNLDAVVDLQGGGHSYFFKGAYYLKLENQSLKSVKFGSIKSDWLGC
Method: (§1) Several compounds and salts were analyzed in an in vitro assay to determine their ability to inhibit the MMP cleavage of peptide substrates. Inhibition constant (Ki) were calculated from the assayed compound-MMP interactions.
(§2) Human recombinant MMP-1, MMP-2, MMP-9, MMP-13, and MMP-14 were used in this assay. All enzymes were prepared in Assignee's laboratories following usual laboratory procedures. Protocols for the preparation and use of these enzymes are available in the scientific literature. See, e.g., Enzyme Nomenclature (Academic Press, San Diego, Calif., 1992) (and the citations therein). See also, Freije et al., J. Biol. Chem., 269(24), 16766-16773 (1994).
The MMP-2 proenzyme was purified by gelatin Sepharose chromatography from MMP-2- transfected p2AHT2 cells provided by Dr. Gregory Goldberg of Washington University (St. Louis, Mo.).
(§3) All MMPs were activated using 4-aminophenylmercuric acetate (“APMA”, Sigma Chemical, St. Louis, Mo.) or trypsin. MMP-9 also was activated using human recombinant MMP-3 (purified in Assignee's laboratory following standard cloning and purification techniques).
(§4) The following fluorogenic, methoxycoumarin-containing polypeptide substrate (A) was used in the MMP inhibition assays:
(§5) MCA-ArgProLeuGlyLeuDpaAlaArgGluArgNH2 (A)
(§6) “MCA” is 7-methoxycoumarin-4-yl acetyl. Substrate (A) was prepared Assignee's laboratory. In the absence of MMP inhibitory activity, the substrate is cleaved at the Gly-Leu peptide bond. This cleavage separates the highly fluorogenic peptide from the 2,4-dinitrophenyl quencher, thus resulting in increase of fluorescent intensity.
(§7) The stock solutions of the assayed compounds and salts were prepared in 1% dimethyl sulfoxide (DMSO). These stock solutions were diluted in Buffer A (100 mM Tris-HCl, 100 mM NaCl, 10 mM CaCl2, 0.05% polyoxyethylene 23 lauryl ether, pH 7.5) to obtain solutions with different compound concentrations, i.e., assay solutions with different concentrations of the assayed MMP inhibitory compound. The experiment controls contained the same amount of Buffer A/DMSO as the assayed sample, but contained none of the tested compound or salt.
(§8) The assays from which the Ki determinations were made were performed as follows. The assayed compound samples were incubated in separate wells of untreated white polystyrene plates (Nunc Nalgene International, Rochester, N.Y.), and analyzed on a Tecan SpectraFlour Plus plate reader. The excitation wavelength was 330 nm, and the emission wavelength -420 nm. All samples (assayed compounds and controls) were incubated in separate plate wells at room temperature for 1 hr in the presence of 4 μM of MMP substrate (A). In the absence of MMP inhibitory activity, substrate (A) was cleaved at the Gly-Leu bond resulting in an increase of relative fluorescence. Inhibition was observed as a reduced rate of this increase in relative fluorescence. […] This protocol is a modification of method by Knight et al., FEBS Lett., 296(3), 263-266 (1992). Apparent inhibitory constants were determined by non-linear regression of reaction velocity as a function of inhibitor and enzyme concentration using Morrison's equation, as described by Kuzmic, P., et al., Anal. Biochem., 286(1):45-50 (2000). Modifications were made in the non-linear regression method to allow a common control reaction rate and effective enzyme concentration to be shared between all dose-response relationships on a given assay plate. Since the substrate concentration was chosen to be at or below the Km, the apparent Ki's from this analysis were reported as Ki's without correction for the influence of substrate.
(§9) The above protocols were used to determine MMP inhibition Ki constants for the compounds in Examples 1, 2, and 4-42 above. All Ki values in Table 3 are given in nM units.

[2] = biological target: T2, Human recombinant MMP-14 (Homo sapiens, UniProt P50281); assay: In vitro MMP inhibition analysis (fluorogenic peptide substrate), MMP-14; format: biochemical; conditions: human recombinant catalytic domain; 4 μM substrate (A); apparent Ki without substrate correction
T2 construct: The catalytic domain enzyme was expressed in E. Coli inclusion bodies; made in house
Method: as §1, §2
The MMP-14 full length cDNA was provided by Dr. Gregory Goldberg of Washington University (St. Louis, Mo.). The catalytic domain enzyme was expressed in E. Coli inclusion bodies, solubilized in urea, purified on a preparative […] reverse phase HPLC column, and then refolded in the presence of zinc acetate and purified for use.
as §3, §4, §5, §6, §7, §8, §9

[3] = biological target: T3, Human recombinant MMP-9 (Homo sapiens, UniProt P14780); assay: In vitro MMP inhibition analysis (fluorogenic peptide substrate), MMP-9; format: biochemical; conditions: human recombinant enzyme; 4 μM substrate (A); apparent Ki without substrate correction
T3 construct: made in house; host or cells: MMP-9-transfected HT1080 cells (spent media)
Method: as §1, §2
The MMP-9 proenzyme was purified by gelatin Sepharose chromatography from spent media of MMP-9-transfected HT1080 cells provided by Dr. Howard Welgus of Washington University (St. Louis, Mo.).
as §3, §4, §5, §6, §7, §8, §9

[4] = biological target: T4, Human recombinant MMP-1 (Homo sapiens, UniProt P03956); assay: In vitro MMP inhibition analysis (fluorogenic peptide substrate), MMP-1; format: biochemical; conditions: human recombinant enzyme; 4 μM substrate (A); apparent Ki without substrate correction
T4 construct: made in house; host or cells: MMP-1-transfected HT-1080 cells (spent media)
T4 sequence (P03956 100-469): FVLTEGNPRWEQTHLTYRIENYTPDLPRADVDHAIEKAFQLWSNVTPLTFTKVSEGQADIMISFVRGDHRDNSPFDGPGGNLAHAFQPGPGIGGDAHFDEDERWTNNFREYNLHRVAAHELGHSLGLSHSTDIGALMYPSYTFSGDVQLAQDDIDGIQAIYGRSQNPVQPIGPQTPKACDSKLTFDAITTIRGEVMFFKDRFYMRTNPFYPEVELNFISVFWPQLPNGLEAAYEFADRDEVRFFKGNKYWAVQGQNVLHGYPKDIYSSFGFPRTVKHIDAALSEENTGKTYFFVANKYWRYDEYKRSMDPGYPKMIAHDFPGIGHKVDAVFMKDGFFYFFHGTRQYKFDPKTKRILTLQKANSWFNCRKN
Method: as §1, §2
The MMP-1 proenzyme was purified from the spent media of MMP-1-transfected HT-1080 cells provided by Dr. Harold Welgus of Washington University (St. Louis, Mo.). The protein was purified on a zinc chelating column.
as §3, §4, §5, §6, §7, §8, §9

[5] = system: advanced, rapidly progressive, treatment-refractory solid tumor cancers (colorectal, pancreatic, ovarian, and prostate); conditions: cited from earlier work

T3 sequence (P14780 107-707 limits assumed): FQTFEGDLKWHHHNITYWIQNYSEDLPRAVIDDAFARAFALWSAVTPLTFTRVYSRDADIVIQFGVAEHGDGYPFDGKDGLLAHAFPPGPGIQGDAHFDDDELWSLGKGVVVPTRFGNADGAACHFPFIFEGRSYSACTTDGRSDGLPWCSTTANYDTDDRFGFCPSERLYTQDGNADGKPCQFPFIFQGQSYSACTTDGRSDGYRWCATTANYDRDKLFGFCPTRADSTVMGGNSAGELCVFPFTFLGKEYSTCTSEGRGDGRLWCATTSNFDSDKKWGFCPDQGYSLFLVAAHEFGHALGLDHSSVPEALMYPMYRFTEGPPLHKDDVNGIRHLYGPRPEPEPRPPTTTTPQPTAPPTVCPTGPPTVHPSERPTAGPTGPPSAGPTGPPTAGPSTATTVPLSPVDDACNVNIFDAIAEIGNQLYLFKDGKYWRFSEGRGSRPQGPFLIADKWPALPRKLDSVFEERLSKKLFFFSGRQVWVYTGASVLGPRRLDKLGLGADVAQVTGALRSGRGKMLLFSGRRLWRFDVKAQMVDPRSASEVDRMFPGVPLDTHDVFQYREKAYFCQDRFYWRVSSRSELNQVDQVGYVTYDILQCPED

SMILES | Ki [1] | Ki [2] | Ki [3] | Ki [4] | effect on cancer-specific antigens used as surrogate markers for biological activity ([5]; Phase I/II studies, patients with advanced solid tumor cancers) | most common drug-related toxicity ([5]; clinical trials, patients)
O=C(c1ccc(-c2ccc(S(=O)(=O)C3(C(=O)NO)CCOCC3)cn2)cc1)N1CCCCC1 [Example 77] | 4.97 µM | > 10 µM | > 10 µM | > 10 µM |  | 
O=C(c1ccc(-c2ccc(S(=O)(=O)C3(C(=O)NO)CCOCC3)cn2)cc1)N1CCOCC1 [Example 80] | 1.76 µM | > 10 µM | > 10 µM | > 10 µM |  | 
CNC(=O)[C@@H](NC(=O)[C@H](CC(C)C)[C@H](O)C(=O)NO)C(C)(C)C [Marimastat] |  |  |  |  | dose-related reduction in the rise of cancer-specific antigens | musculoskeletal pain and stiffness
